{
  "source": "patent US7767398B2",
  "about": "“Means and methods for diagnosing and treating affective disorders” (Affectis Pharmaceuticals AG, priority 2003, dated 2010)",
  "key": {"P2X7R [1]": {"biological_target": "T1, P2X7R (Mus musculus, UniProt Q9Z1M0)", "T1 construct": "an immortalised mouse hippocampal cell line expressing the endogenous P2X7 gene; endogenous in cells; host or cells: HT-22 mouse hippocampal cell line", "T1 sequence (Q9Z1M0 1-595)": "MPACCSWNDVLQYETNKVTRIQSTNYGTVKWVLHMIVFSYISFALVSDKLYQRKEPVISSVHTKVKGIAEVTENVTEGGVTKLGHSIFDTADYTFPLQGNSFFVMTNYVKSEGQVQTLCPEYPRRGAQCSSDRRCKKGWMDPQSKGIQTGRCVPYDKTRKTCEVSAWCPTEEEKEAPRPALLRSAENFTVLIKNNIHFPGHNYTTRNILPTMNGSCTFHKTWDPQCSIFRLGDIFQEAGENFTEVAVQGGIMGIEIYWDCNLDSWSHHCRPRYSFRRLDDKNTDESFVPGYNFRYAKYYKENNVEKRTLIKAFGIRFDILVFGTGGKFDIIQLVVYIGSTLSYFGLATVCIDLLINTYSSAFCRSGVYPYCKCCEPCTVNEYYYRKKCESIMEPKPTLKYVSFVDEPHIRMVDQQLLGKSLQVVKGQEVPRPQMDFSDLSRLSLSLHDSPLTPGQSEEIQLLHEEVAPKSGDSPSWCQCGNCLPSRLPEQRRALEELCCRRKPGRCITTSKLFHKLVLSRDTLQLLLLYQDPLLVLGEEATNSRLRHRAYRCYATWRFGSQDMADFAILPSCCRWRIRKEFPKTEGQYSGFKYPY", "experiment": "Calcium influx into HT-22 cells (Oregon green AM ester)", "assay_type": "cell-based", "parameters": "dose or concentration left out as unconfirmed", "conditions": "HT-22 cells pre-treated with oATP for 1 hour before BzATP", "text": "Since P2X7R is an ATP-gated ion channel which allows the entry of calcium and sodium ions into cells, a method for identifying P2X7R agonist was established by monitoring calcium influx into HT-22 cells. […] Calcium movement into the cells was visualised under a fluorescent microscope with a fluorescein filter (wavelength 492/517 nm). Oregon green AM ester is a fluorescent dye that binds to intracellular calcium. […] Alternatively, Oregon green AM ester can be replaced by Fluo-3, fluo-4, fluo-5F, fluo-5N, fluo4FF, Fluo4 dextran, Fluo-3 AM, Fluo-4 AM, Fluo-5F AM, Fluo-5N AM and Fluo4FF AM (Molecular Probes). Calcium influx in HT-22 cells can also be measured in 96-well and 384-well microplate using the Calcium Plus Assay Kit (Molecular Device) or FLIPR® Calcium Assay Kit for Fluorometric Imaging Plate Reader Systems (Molecular Device). HT-22 cells can be replaced by any cells expressing P2X7R, including cells that have been genetically modified by introducing an exogenous P2X7 gene.\nActivation of P2X7R by the agonist was inhibited by oATP (FIG. 18) as illustrated by the absence of green fluorescence in the cells."}, "P2X7R [2]": {"biological_target": "T1, P2X7R", "experiment": "Entry of ethidium bromide into HT-22 cells", "assay_type": "cell-based", "conditions": "pre-incubation 60 minutes with 100 μM o-ATP before agonist and ethidium bromide", "text": "Yet another method of measuring P2X7R activity involves the entry of ethidium bromide into P2X7R expressing cells. Activation of P2X7R by an agonist allows the entry of ethidium bromide which binds nuclear DNA and emits a fluorescence signal. Alternatively, the propidium dye YOPRO-1 can be substituted for ethidium bromide. An increase in fluorescence can be used as a measure of P2X7 receptor activation. Therefore, the assay can be used to test and quantify the effect of an agent or compound with agonist properties on P2X7R. In the present example, 10^3 HT-22 cells were seeded per well in a 96-well flat bottom microtitre plates and incubated at 37° C./5% CO2 in DMEM medium containing 10% FCS until the cells attached to the culture surface. […] The number of fluorescent cells which have integrated the ethidium bromide to the DNA can then be counted using a fluorescent microscope (Zeiss, Germany). […] Alternatively, ethidium bromide fluorescence can be measured using a Perkin-Elmer fluorescent plate reader (excitation 520 nm, emission 595 nm, slit widths: Ex 15 nm, Em 20 nm). From the readings obtained, a pIC50 figure can be calculated for each candidate agent or compound. […] The specificity of an agonist for P2X7R can be evaluated by pre-incubation of the cells for 60 minutes with 100 μM o-ATP before adding the agonist and ethidium bromide dye."}, "mice": {"system": "mice", "experiment": "Porsolt's forced swim test", "assay_type": "in vivo, mouse", "conditions": "100 nM KN-62 or 10 μM oATP, 1 μl each side, dentate gyrus; 24 hours after injection; DBA/201a mice", "protocol": "Further validation of role of P2X7R in affective disorders was performed by examining its expression pattern in response to stress and treatment with antidepressant drugs. […] In parallel, a control group of mice was given vehicle solution (i.e. without paroxetine) using the same treatment regiment while a second control group of mice was left undisturbed and stress-free (i.e. untreated) during the same period of the experiments. At the end of the long-term treatment, part of the mice of each experimental group were tested in the dark/light box (test of anxiety behaviour) and in the Porsolt's forced swim test (test of depressive-like behaviour) to confirm the effectiveness of the treatment (FIG. 5). […] The other part of the experimental groups (i.e. mice without test experience) were decapitated, brains rapidly removed and frozen at −80° C. until usage.\nThe effects of P2X7R inhibition on depressive-like behaviour was assessed 24 hours and 48 hours after infusion of siRNA, control or vehicle according to the standard test paradigm, the Porsolt's forced swim test (Porsolt et al., Arch. Int. Pharmacodym. 229 (1977), 327-336; Porsolt, Rev. Neurosci. 11 (2000), 53-58). […] Compared to vehicle application, no influence of control double stranded RNA (5′-[…]-3′) on floating behaviour (passive stress coping) was detected. […] This interpretation becomes moreover evident when the effects of antidepressants on passive stress coping behaviour in the forced swim test are visualized (FIG. 5). Passive stress coping behaviour increased after acute intrahippocampal injection (bilateral, dentate gyrus) of siRNA targeting P2X7R. The Porsolt's forced swim test is a standard test used to assess the effectiveness of antidepressants and it has been proven by many studies that the test is selectively sensitive for these effects, given that the right animal model is used. The paradigm has been widely used to test pharmaceutical compounds and to validate animal models of depression, which show an increase in passive behaviour as do the mice where P2X7R has been inhibited (siRNA).\nThe forced swim test is a standard test that measures primary stress-induced reductions in avoidance or escape, termed behavioural despair. The test is used to determine the effectiveness of antidepressants, test new pharmaceutical compounds and validate animal models of depression (Porsolt et al., Arch. Int. Pharmacodym. 229 (1977), 327-336; Porsolt, Rev. Neurosci. 11 (2000), 53-58; Rénéric et al., Behav. Brain Res. 136 (2002), 521-532; Page et al., Psychopharmacology 165 (2003), 194-201; Kelliher et al., Psychoneuroendocrinology 28 (2003), 332-347). The test consists of placing a mouse for a period of 5 minutes into a glass cylinder containing water. Under such circumstances, the mouse cannot touch the bottom of the cylinder and is thus forced to swim. Time, latency and frequency of struggling versus floating are scored as behavioural parameters. […] Increased struggling (i.e. active attempts to escape) indicates active coping behaviour that can be interpreted as an improvement of depression-like symptoms. For example, treatment with serotonergic antidepressants reduce the total time spent floating (Borsini, Neurosci. Biobehav. Rev. 19 (1995), 377-395; Redrobe and Bourin, Psychopharmacology 138 (1998), 198-206, and in parallel increases the time of active behaviour (i.e. swimming or struggling; Lucki et al., Psychopharmacology 155 (2001), 315-322).\nThe behaviour of individual mice was assessed using the Porsolt's forced swim test 24 hours after injection of vehicle solution, KN-62, or oATP. A pre-exposure of 5 minutes to the test was performed 15-17 minutes after administration of vehicle, KN-62, or oATP. A description of the Porsolt's forced swim test is given in example 9. […]"}},
  "data": [
    {"smiles": "Nc1ncnc2c1ncn2[C@@H](C=O)O[C@@H](C=O)COP(=O)(O)OP(=O)(O)OP(=O)(O)O", "note": "[oATP]", "values": [
      {"measurement": "activation of P2X7R by the agonist (BzATP) after antagonist pre-treatment, calcium influx", "setting": "P2X7R [1]", "result": "inhibited"},
      {"measurement": "number of fluorescent cells after antagonist pre-incubation (ethidium bromide entry)", "setting": "P2X7R [2]", "result": "reduction in the number of fluorescent cells"},
      {"measurement": "active escape attempts (time, frequency, latency of struggling) in the forced swim test", "setting": "mice", "result": "no changes"},
      {"measurement": "passive behaviour (time, frequency, latency of floating) in the forced swim test", "setting": "mice", "result": "no changes"}
    ]}
  ]
}
